Measurements: PubChem BioAssay (NCI)
Several values for one entry are separate records, joined by “and”; a condition that tells them apart may be missing. Equal values may be shown once.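 Growth conditions: 96-well plates. Treatment: test compound, 48 hours, 5 concentrations. Analysis: linear interpolation between bracketing concentrations; unreached endpoints set to highest concentration. GI50 marks 50% less growth. TGI is the concentration that stops growth completely.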

Experiments:
Assay in all cases: NCI anticancer screen, dose series, 48 h
NCI-H23 lung = system: NCI-H23 lung
SF-295 CNS = system: SF-295 CNS
COLO 205 colon = system: COLO 205 colon
SW-620 colon = system: SW-620 colon
SK-MEL-5 melanoma = system: SK-MEL-5 melanoma
HCC-2998 colon = system: HCC-2998 colon
RXF 393 renal = system: RXF 393 renal
HCT-15 colon = system: HCT-15 colon
RPMI-8226 leukemia = system: RPMI-8226 leukemia
ACHN renal = system: ACHN renal

| SMILES | GI50 (NCI-H23 lung) | TGI (NCI-H23 lung) | GI50 (SF-295 CNS) | TGI (SF-295 CNS) | GI50 (COLO 205 colon) | TGI (COLO 205 colon) | GI50 (SW-620 colon) | TGI (SW-620 colon) | GI50 (SK-MEL-5 melanoma) | TGI (SK-MEL-5 melanoma) | GI50 (HCC-2998 colon) | TGI (HCC-2998 colon) | GI50 (RXF 393 renal) | TGI (RXF 393 renal) | GI50 (HCT-15 colon) | TGI (HCT-15 colon) | GI50 (RPMI-8226 leukemia) | TGI (RPMI-8226 leukemia) | TGI (ACHN renal) | GI50 (ACHN renal) |
| --- | --- | --- | --- | --- | --- | --- | --- | --- | --- | --- | --- | --- | --- | --- | --- | --- | --- | --- | --- | --- |
| Clc1ccc(C2=NN[C@H](c3cn(-c4ccccc4)nc3-c3ccccc3)C2)cc1 | 5.27 µM | 23.4 µM | 3.36 µM | 13.2 µM | 4.63 µM | 22.4 µM | 4.31 µM | 32 µM | 19 µM | > 100 µM | 11.4 µM | > 100 µM | 2.48 µM | 8.08 µM | 16.5 µM | > 100 µM | 14.1 µM | > 100 µM |  |  |
| Cc1ccc(C(=O)C#Cc2c[nH]c(=O)[nH]c2=O)cc1 |  | 39.6 µM |  | > 100 µM |  | 44.3 µM |  | 20.9 µM |  | 26.5 µM |  | 25.3 µM |  | 12.4 µM |  | 37.7 µM |  |  | 29 µM |  |
| Cc1ccc(NC2=C(Cl)C(=O)N(Cc3ccccc3)C2=O)cc1Cl | 4.13 µM | 14.6 µM | 7.66 µM | 22.5 µM | 7.03 µM | 22.1 µM | 5.14 µM | 16.9 µM | 5.64 µM | 19.1 µM |  |  | 2.33 µM | 10.6 µM | 5.4 µM | 21.4 µM | 0.454 µM | 3.36 µM | 26.6 µM | 11.1 µM |
| COc1ccc(-c2nc(N3CCOCC3)c3sc(CN(C)c4ncc(C(=O)NO)cn4)cc3n2)cn1 | 0.0103 µM | 0.601 µM | < 0.01 µM | 0.042 µM |  |  | < 0.01 µM | 1.41 µM |  |  |  |  | < 0.0122 µM | 0.0453 µM |  |  | < 0.01 µM |  | 0.0345 µM | < 0.01 µM |
| O=C(NC1CCCCC1)NS(=O)(=O)c1ccc(-n2nc3c(c2-c2ccc(Cl)cc2)Cc2ccccc2-3)cc1 |  |  | 11.3 µM | 28.9 µM | 36.2 µM | > 100 µM | 2.46 µM | > 100 µM | 12.1 µM | 40.2 µM |  |  | 20 µM | 75.2 µM | 7.79 µM | 31.2 µM | 2.11 µM | 5.43 µM | 21 µM | 7.93 µM |
| CCCCCCCCCCCCCCCCCC(=O)OCC(C[As](=O)(O)O)OC(=O)CCCCCCCCCCCCCCCCC (stereo unspecified) |  | > 100 µM |  | > 100 µM |  |  |  | 33.8 µM |  | > 100 µM |  | > 100 µM |  | 47 µM |  | > 100 µM |  | 80.8 µM | > 100 µM |  |
| Oc1ccc(-c2cn3cc(Cl)sc3n2)cc1 |  |  | 47.3 µM | > 100 µM | 19.8 µM | 43.4 µM | 56.9 µM | > 100 µM | 29.8 µM | 78.1 µM |  |  | > 100 µM | > 100 µM | > 100 µM | > 100 µM | 16.5 µM | 40.7 µM | 24.6 µM | 3.98 µM |
| O=C1CC[C@H](c2ccc(O)c3c2C(=O)[C@@H]2O[C@@H]2C3=O)c2cccc(O)c21 | 3.31 µM | 20.4 µM | 15.4 µM | 29.7 µM | 1.24 µM | 2.88 µM | 1.6 µM | 4.92 µM | 3.54 µM | 12.1 µM | 2.12 µM | 4.29 µM | 1.73 µM | 3.27 µM |  |  |  |  | 4.16 µM | 1.46 µM |
| COc1cc(-n2cnc(-c3ccc(Cl)cc3)c2)cc(OC)c1OC | 17.9 µM | 35 µM | 17.6 µM | 38.1 µM | 15.4 µM | 29.8 µM | > 100 µM | > 100 µM | 67.8 µM | > 100 µM | 16.8 µM | 30.4 µM |  |  | 16.8 µM | 36.3 µM | 14.7 µM | 32.2 µM | 57.3 µM | 19.8 µM |
| COC1=C2C[C@@H](C)C[C@@H](OC)[C@@H](O)[C@H](C)/C=C(\C)[C@@H](OC(N)=O)[C@H](OC)/C=C\C=C(/C)C(=O)NC(=CC1=O)C2=O |  |  |  |  | 0.0578 µM and 0.015 µM |  |  |  |  | 8.59 µM [middle of 4 runs] |  |  | 0.0245 µM |  |  |  |  |  |  |  |
| CCCC(=O)Nc1ccc2c(c1)CN1C(=O)c3ccccc3C1=N2 |  | > 100 µM |  | > 100 µM |  | > 100 µM |  | > 100 µM |  | > 100 µM |  | > 100 µM |  |  |  | > 100 µM |  | > 100 µM | > 100 µM |  |
| CN(C)C1=NC2=S(SC(Nc3ccccc3)=N2)S1 (stereo unspecified) |  | > 100 µM |  | 88.9 µM |  |  |  | > 100 µM |  | 28.8 µM |  | > 100 µM |  | > 100 µM |  | > 100 µM |  | 57.1 µM | > 100 µM |  |
| O=C(c1nc2ccc(Cl)cc2[nH]c1=O)C(O)c1ccc2c(c1)OCO2 (stereo unspecified) |  | > 100 µM |  | > 100 µM |  | > 100 µM |  | > 100 µM |  |  |  | > 100 µM |  | > 100 µM |  |  |  | > 100 µM | > 100 µM |  |
| N#CCCSC(=S)C1CCCC1=N (stereo unspecified) |  | > 100 µM |  | > 100 µM |  | > 100 µM |  | > 100 µM |  | > 100 µM |  |  |  | > 100 µM |  | > 100 µM |  | > 100 µM | > 100 µM |  |
| NC1=CC(=O)c2nc3ccccc3c3ccnc1c23 | 0.273 µM | 22.8 µM | 0.19 µM | > 39.5 µM |  |  | 3.14 µM | > 100 µM |  |  | 0.497 µM | 11.5 µM | 4.78 µM | 17.2 µM | 0.622 µM | > 100 µM | 5.18 µM | > 100 µM | 33 µM | 3.15 µM |
| CCC1CC(C)=CCN1S(=O)(=O)c1ccc(C)cc1 (stereo unspecified) |  |  |  | > 100 µM |  | 38.4 µM |  |  |  | 26.8 µM |  |  |  |  |  | 83.7 µM |  | 20.5 µM | > 100 µM |  |
| COc1ccc(C(=O)C(C(=O)C(=O)NC2C3CC4CC(C3)CC2C4)c2ccc(OC)cc2)cc1 (stereo unspecified) |  | > 100 µM |  | > 100 µM |  | > 100 µM |  | > 100 µM |  | > 100 µM |  | > 100 µM |  |  |  | > 100 µM |  | > 100 µM | > 100 µM |  |
| COc1cc(Nc2nc3cc(C(F)(F)F)ccc3nc2-c2ccccc2)cc(OC)c1OC |  | > 100 µM |  | > 100 µM |  | > 100 µM |  | > 100 µM |  | > 100 µM |  | > 100 µM |  | 63.8 µM |  | > 100 µM |  |  | > 100 µM |  |
| CC1=NC(C(C)C)C(=O)O1 (stereo unspecified) |  | > 100 µM |  | > 100 µM |  | > 100 µM |  | 25.8 µM |  | > 100 µM |  | > 100 µM |  |  |  | > 100 µM |  | 56 µM | > 100 µM |  |
| CCOC(=O)NC(=O)c1cn(CCCOC(=O)NCCCCCCNC(=O)OCCCn2cc(C(=O)NC(=O)OCC)c(=O)[nH]c2=O)c(=O)[nH]c1=O |  |  |  | 49.4 µM |  | 41 µM |  | 93.6 µM |  | > 100 µM |  | > 100 µM |  |  |  | 65.1 µM |  | 39.2 µM | 32.9 µM |  |
